In one experiment the target is T1, human uPAR (uPAR-Fc) (Homo sapiens, UniProt Q03405).
T1 construct: comprising amino acids Leu23-Arg303 according to UniProt entry Q03405.1; purchased R&D Systems 10378-UK-100
Kind of experiment: Surface plasmon resonance (SPR) assay, single cycle kinetics. The experiment is classed as binding. The following applies: pKD category for uPAR SPR activity assay; uPAR-Fc on Protein A-Chip, single cycle kinetics, 25°C; read-out: pKD CAT (converted). In short, it runs like this: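 uPAR-Fc (Leu23-Arg303 extracellular domains, human IgG1 Fc) captured on Protein A chip to ~2000 RU; single-cycle kinetics at 25°C in HEPES running buffer pH 7.4 with 0.1% DMSO. KD from double-referenced sensorgrams fitted to 1:1 Langmuir model, reported as pKD.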
Background: In SPR one partner is held on a chip, and binding of the other changes the refractive index at the surface.

In experiment [1] the target is T2, uPAR-expressing HEC-265 human endometrial adenocarcinoma cells (Homo sapiens, UniProt Q03405).
T2 construct: Cell surface uPAR-expressing HEC-265 human endometrial adenocarcinoma cells; host or cells: HEC-265
Kind of experiment: Competitive FACS binding assay. The following applies: pIC50 category of FACS binding. In short, it runs like this: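 Competitive displacement of a 10 nM biotinylated peptide from HEC-265 cells (1 h, 4 °C, PBS/1% BSA), detected via APC-streptavidin by flow cytometry. pIC50 from four-parameter logistic fit of median fluorescence versus concentration.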

Where a SMILES comes first, the peptide text is derived from it. Bridges are numbered along the chain shown (N, C = ends). [ ]: non-standard residue; d: D form. The star is where a group is joined. CH3O(CH2CH2O)11CH2CH2CO = COCCOCCOCCOCCOCCOCCOCCOCCOCCOCCOCCOCCC(=O)*; DOTA = O=C(O)CN1CCN(CC(=O)O)CCN(CC(=O)*)CCN(CC(=O)O)CC1; Oic = O=C(O)[C@@H]1C[C@@H]2CCCC[C@@H]2N1; Phe(4-CN) = N#Cc1ccc(C[C@H](N)C(=O)O)cc1; Pro(cis-4-F) = O=C(O)[C@@H]1C[C@H](F)CN1; Pro(4R-NH2) = N[C@H]1CN[C@H](C(=O)O)C1; Ala(cPr) = N[C@@H](CC1CC1)C(=O)O; Hyp = O=C(O)[C@@H]1C[C@@H](O)CN1; Pentanoyl(4-Me) = CC(C)CCC(=O)*; Cha = N[C@@H](CC1CCCCC1)C(=O)O; Cit = NC(=O)NCCC[C@H](N)C(=O)O; Butoxycarbonyl = CCCCOC(=O)*; Orn = NCCC[C@H](N)C(=O)O; Thz = O=C(O)[C@@H]1CSCN1; dNMeA = CN[C@H](C)C(=O)O; Nva = CCC[C@H](N)C(=O)O; Pentanoyl = CCCCC(=O)* Where only a bound is given, the exact number is not on record here.

T1 sequence (Q03405 23-303): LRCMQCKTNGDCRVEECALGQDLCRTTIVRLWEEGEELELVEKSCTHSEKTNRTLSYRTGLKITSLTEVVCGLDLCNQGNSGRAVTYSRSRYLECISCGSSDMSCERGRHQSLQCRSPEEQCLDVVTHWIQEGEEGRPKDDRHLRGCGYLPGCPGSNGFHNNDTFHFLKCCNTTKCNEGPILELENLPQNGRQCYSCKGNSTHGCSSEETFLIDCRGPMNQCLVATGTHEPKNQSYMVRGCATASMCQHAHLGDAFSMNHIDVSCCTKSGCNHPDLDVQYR
T2 sequence (Q03405 23-335): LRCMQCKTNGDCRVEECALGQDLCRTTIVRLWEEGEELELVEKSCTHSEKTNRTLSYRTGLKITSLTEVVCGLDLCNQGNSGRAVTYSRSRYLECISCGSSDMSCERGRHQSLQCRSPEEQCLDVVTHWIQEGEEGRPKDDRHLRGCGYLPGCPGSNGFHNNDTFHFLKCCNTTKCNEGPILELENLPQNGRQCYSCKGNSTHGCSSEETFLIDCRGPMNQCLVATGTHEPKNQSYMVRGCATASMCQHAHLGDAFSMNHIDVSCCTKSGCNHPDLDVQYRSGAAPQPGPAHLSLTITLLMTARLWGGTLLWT

As for `CCCCC(=O)N[C@H]1CSSC[C@@H](C(N)=O)NC(=O)[C@H](CCC)NC(=O)[C@H]([C@@H](C)CC)NC(=O)[C@@H]2C[C@@H](O)CN2C(=O)[C@@H]2CCCN2C(=O)[C@H](Cc2ccccc2)NC(=O)[C@H](CC2CCCCC2)NC(=O)[C@H](CCC(N)=O)NC(=O)[C@H](CCCNC(=N)N)NC1=O` [UPAR-373, Pent-[Cys-Arg-Gln-Cha-Phe-Pro-Hyp-Ile-Nva-Cys]-NH2] (Pentanoyl-CRQ[Cha]FP[Hyp]I[Nva]C-NH2; disulfide 1-10), the Kd on human uPAR (uPAR-Fc) was less than 0.00158 µM. In experiment [1], this molecule showed a 50% inhibitory concentration (IC50) not above 0.01 µM.

Take `CC[C@H](C)[C@@H]1NC(=O)[C@@H](C)NC(=O)[C@@H]2CSCN2C(=O)[C@H](Cc2ccccc2)NC(=O)[C@H](Cc2ccc(O)cc2)NC(=O)[C@H](CCC(N)=O)NC(=O)[C@H](CCCNC(N)=O)NC(=O)[C@@H](NC(=O)CCC(C)C)CSSC[C@@H](C(N)=O)NC(=O)[C@H](CC(C)C)NC1=O` [UPAR-375, iHex-[Cys-Cit-Gln-Tyr-Phe-Eaz-ala-Ile-Leu-Cys]-NH2] ({Pentanoyl(4-Me)}-C[Cit]QYF[Thz][dA]ILC-NH2; disulfide 1-10): the Kd at human uPAR (uPAR-Fc) was less than 0.00158 µM. The molecule also had an IC50 in experiment [1] not above 0.01 µM.

For the molecule `CCCCC(=O)N[C@H]1CSSC[C@@H](C(N)=O)NC(=O)[C@H](CCC)NC(=O)[C@H]([C@@H](C)CC)NC(=O)[C@@H]2C[C@@H](N)CN2C(=O)[C@@H]2CCCN2C(=O)[C@H](Cc2ccccc2)NC(=O)[C@H](Cc2ccc(O)cc2)NC(=O)[C@H](CCCCNC(=O)CN2CCN(CC(=O)O)CCN(CC(=O)O)CCN(CC(=O)O)CC2)NC(=O)[C@H](CCCNC(N)=O)NC1=O` [UPAR-377, Pent-[Cys-Cit-Lys(DOTA)-Tyr-Phe-Pro-Tap-Ile-Nva-Cys]-NH2] (Pentanoyl-C[Cit]K(DOTA)YFP[Pro(4R-NH2)]I[Nva]C-NH2; disulfide 1-10), the Kd at human uPAR (uPAR-Fc) was less than 0.00158 µM. The same molecule showed an IC50 in experiment [1] not above 0.01 µM.

In the case of `CCCCOC(=O)N[C@H]1CSSC[C@@H](C(N)=O)NC(=O)[C@H](CCC)NC(=O)[C@H]([C@@H](C)CC)NC(=O)[C@@H]2C[C@@H](O)CN2C(=O)[C@@H]2C[C@H](F)CN2C(=O)[C@H](Cc2ccc(C#N)cc2)NC(=O)[C@H](Cc2ccc(O)cc2)NC(=O)[C@H](CCCCNC(=O)CN2CCN(CC(=O)O)CCN(CC(=O)O)CCN(CC(=O)O)CC2)NC(=O)[C@H]([C@@H](C)O)NC1=O` [UPAR-378, Butoc-[Cys-Thr-Lys(DOTA)-Tyr-Pnf-4Cfp-Hyp-Ile-Nva-Cys]-NH2] (Butoxycarbonyl-CTK(DOTA)Y[Phe(4-CN)][Pro(cis-4-F)][Hyp]I[Nva]C-NH2; disulfide 1-10), the Kd on human uPAR (uPAR-Fc) is less than 0.00158 µM. In experiment [1], this molecule had an IC50 not above 0.01 µM.

As for `CCCCC(=O)N[C@H]1CSSC[C@@H](C(N)=O)NC(=O)[C@H](CC2CC2)NC(=O)[C@H]([C@@H](C)CC)NC(=O)[C@@H]2C[C@@H](O)CN2C(=O)[C@@H]2CCCN2C(=O)[C@H](Cc2ccccc2)NC(=O)[C@H](Cc2ccc(O)cc2)NC(=O)[C@H](CCC(N)=O)NC(=O)[C@H](CCCNC(=N)N)NC1=O` [UPAR-379, Pent-[Cys-Arg-Gln-Tyr-Phe-Pro-Hyp-Ile-Cpra-Cys]-NHz] (Pentanoyl-CRQYFP[Hyp]I[Ala(cPr)]C-NH2; disulfide 1-10), the Kd at human uPAR (uPAR-Fc) is less than 0.00158 µM. Further, the IC50 in experiment [1] is not above 0.01 µM.

Turning to `CCCCC(=O)N[C@H]1CSSC[C@@H](C(N)=O)NC(=O)[C@H](COC)NC(=O)[C@H]([C@@H](C)CC)NC(=O)[C@@H]2C[C@@H](O)CN2C(=O)[C@@H]2CCCN2C(=O)[C@H](Cc2ccccc2)NC(=O)[C@H](Cc2ccc(O)cc2)NC(=O)[C@H](CCCCNC(=O)CN2CCN(CC(=O)O)CCN(CC(=O)O)CCN(CC(=O)O)CC2)NC(=O)[C@H](CCCNC(N)=O)NC1=O` [UPAR-380, Pent-[Cys-Cit-Lys(DOTA)-Tyr-Phe-Pro-Hyp-Ile-Ser(Me)-Cys]-NH2] (Pentanoyl-C[Cit]K(DOTA)YFP[Hyp]IS(Me)C-NH2; disulfide 1-10), the Kd at human uPAR (uPAR-Fc) is 0.00158 to 0.01 µM. This molecule also had an IC50 in experiment [1] not above 0.01 µM.

`CC[C@H](C)[C@@H]1NC(=O)[C@H](C)NC(=O)[C@@H]2CCCN2C(=O)[C@H](Cc2ccccc2)NC(=O)[C@H](Cc2ccc(O)cc2)NC(=O)[C@H](CCC(N)=O)NC(=O)[C@H](CCCNC(=N)N)NC(=O)[C@@H](NC(=O)[C@H](CC(C)C)NC(C)=O)CSSC[C@@H](C(N)=O)NC(=O)[C@H](CC(C)C)NC1=O` [UPAR-381, Ac-Leu-[Cys-Arg-Gln-Tyr-Phe-Pro-Ala-Ile-Leu-Cys]-NH2] (Ac-LCRQYFPAILC-NH2; disulfide 2-11): at human uPAR (uPAR-Fc), the Kd was less than 0.00158 µM. The same molecule gave an IC50 in experiment [1] not above 0.01 µM.

Regarding `CCCCC(=O)N[C@H]1CSSC[C@@H](C(N)=O)NC(=O)[C@H](CCC)NC(=O)[C@H]([C@@H](C)CC)NC(=O)[C@@H]2C[C@@H](O)CN2C(=O)[C@@H]2CCCN2C(=O)[C@H](Cc2ccccc2)NC(=O)[C@H](Cc2ccc(O)cc2)NC(=O)[C@H](CCCCNC(=O)CN2CCN(CC(=O)O)CCN(CC(=O)O)CCN(CC(=O)O)CC2)NC(=O)[C@H](CCCNC(=O)CCOCCOCCOCCOCCOCCOCCOCCOCCOCCOCCOCCOC)NC1=O` [UPAR-383, Pent-[Cys-Orn(mPEG12)-Lys(DOTA)-Tyr-Phe-Pro-Hyp-Ile-Nva-Cys]-NHz] (Pentanoyl-C[Orn](CH3O(CH2CH2O)11CH2CH2CO)K(DOTA)YFP[Hyp]I[Nva]C-NH2; disulfide 1-10), at human uPAR (uPAR-Fc), the Kd was less than 0.00158 µM. Besides, the IC50 in experiment [1] is not above 0.01 µM.

For `CCCCC(=O)N[C@H]1CSSC[C@@H](C(N)=O)NC(=O)[C@H](CCC)NC(=O)[C@H]([C@@H](C)CC)NC(=O)[C@@H](C)N(C)C(=O)[C@@H]2CCCN2C(=O)[C@H](Cc2ccccc2)NC(=O)[C@H](Cc2ccc(O)cc2)NC(=O)[C@H](CCCCNC(=O)CN2CCN(CC(=O)O)CCN(CC(=O)O)CCN(CC(=O)O)CC2)NC(=O)[C@H](CCCNC(N)=O)NC1=O` [UPAR-384, Pent-[Cys-Cit-Lys(DOTA)-Tyr-Phe-Pro-nma-Ile-Nva-Cys]-NH2] (Pentanoyl-C[Cit]K(DOTA)YFP[dNMeA]I[Nva]C-NH2; disulfide 1-10), the Kd at human uPAR (uPAR-Fc) is less than 0.00158 µM. In addition, in experiment [1], the IC50 was not above 0.01 µM.

Turning to `CCCCC(=O)N[C@H]1CSSC[C@@H](C(N)=O)NC(=O)[C@H](CCC)NC(=O)[C@H](CCCCN)NC(=O)[C@@H]2C[C@@H](O)CN2C(=O)[C@@H]2CCCN2C(=O)[C@H](Cc2ccccc2)NC(=O)[C@H](Cc2ccc(O)cc2)NC(=O)[C@H](CCC(N)=O)NC(=O)[C@H](CCCNC(=N)N)NC1=O` [UPAR-385, Pent-[Cys-Arg-Gln-Tyr-Phe-Pro-Hyp-Lys-Nva-Cys]-NH2] (Pentanoyl-CRQYFP[Hyp]K[Nva]C-NH2; disulfide 1-10), at human uPAR (uPAR-Fc), the Kd was 0.01 to 0.1 µM. In addition, the IC50 in experiment [1] was not below 0.126 µM.

For `CCCCC(=O)N[C@H]1CSSC[C@@H](C(N)=O)NC(=O)[C@H](CCC)NC(=O)[C@H]([C@@H](C)CC)NC(=O)[C@@H]2C[C@@H](O)CN2C(=O)[C@@H]2C[C@@H]3CCCC[C@@H]3N2C(=O)[C@H](Cc2ccccc2)NC(=O)[C@H](Cc2ccc(O)cc2)NC(=O)[C@H](CCC(N)=O)NC(=O)[C@H](CCCNC(=N)N)NC1=O` [UPAR-387, Pent-[Cys-Arg-Gln-Tyr-Phe-Oic-Hyp-Ile-Nva-Cys]-NH2] (Pentanoyl-CRQYF[Oic][Hyp]I[Nva]C-NH2; disulfide 1-10), the Kd on human uPAR (uPAR-Fc) is less than 0.00158 µM. In addition, in experiment [1], the IC50 is not above 0.01 µM.

Broadly, the IC50 is the point on the concentration scale where inhibition reaches its midpoint. Higher therefore signals weaker potency in that assay.

These data come from EP4610269A1, “UROKINASE PLASMINOGEN ACTIVATOR SURFACE RECEPTOR (UPAR) LIGANDS FOR DIAGNOSTIC OR THERAPEUTIC USE” (3B Pharmaceuticals GmbH, priority 2024, dated 2025).
